Entries after “also recorded” stand apart in the source; their conditions may differ.
What was measured:
cancer patients = assay: Clinical outcome of 119 cancer patients given synthetic pharmaceutical-grade CBD; type: in vivo, human; settings: for Extended median survival / Stable disease / Died / No effect/result / Slowed progression / Tumour free: number of patients
Experimental: Patients were given synthetic, pharmaceutical-grade CBD (STI Pharmaceuticals), registered under the Pharmaceutical Specials scheme in oily drops at 5% (w/v) in 20 ml bottles. Each drop contained 1 mg of synthetic CBD in neutral oil. This was prescribed on an informed consent basis. 119 cancer patients decided to have this treatment (Table 1), and most of them had metastatic cancers. Of the 119 patients, 28 were given CBD as the only treatment.
(§1) The majority of the patients were assessed using a circulating tumour cell test before and after treatment, since this is cheaper than carrying out repeated scans. A number of patients however, as a matter of a normal treatment course, had relevant scans.
The average dose was 10 mg twice a day. For increased tumour mass, the dose was increased, in some cases up to 30 drops twice a day (30 mg). In a number of cases where stable disease was present, the dose was reduced to five drops twice a day (5 mg). In some cases, Sativex, which is licensed for use in multiple sclerosis, was used in conjunction with CBD as a source of THC, which synergises with CBD. A fraction of the dose used for multiple sclerosis was used. […] Some of the patients reverted to Cannabis oil bought on the Internet, and following this, 80% of these cases relapsed.
(§2) The minimum duration of treatment required for CBD was six months, but many continued for longer. Less than six months appeared inadequate and had little effect, and therefore cases in which CBD was used for less than six months have been defined as un-assessable, and not included in the current cohort of 119 cases.

[1] = test system: circulating tumour cells (CTCs); assay: Circulating tumour cell test before and after treatment; type: in vivo, human; settings: for Circulating tumour cells (CTCs): CBD only
Experimental: as §1

tumour = assay: Scans and examination of tumour in individual patients; type: in vivo, human
Experimental: as §1
Clear objective evidence of potential efficacy was sought where no other treatment option was available. The most impressive case was a patient with an anaplastic ependymoma, a very rare brain tumour. The patient had had all standard treatments, surgery on two occasions followed by chemotherapy and conformal photon radiotherapy. No further treatment options were available to them when treatment on CBD started.
Another impressive case was a patient with progressive tanycytic ependymoma Grade 2, treated with biopsy and radical radiotherapy for two years. They refused chemotherapy, and had no further treatment options. They started on pharmaceutical-grade synthetic CBD a year after radiotherapy ended, at a dose of 10 drops twice a day, three days on and three days off (10 mg). Prior to this they had been taking, for some time, metformin, mebendazole, doxycycline and atorvastatin from an oncology clinic in Central London.
At that point the patient stopped taking pharmaceutical-grade synthetic CBD and switched to Cannabis oil extract obtained from an internet website. […] They have since restarted pharmaceutical-grade synthetic CBD and throughout continued to take the metformin, atorvastatin, doxycycline and mebendazole. So, the only change had been stopping the pharmaceutical-grade synthetic CBD and switching to Cannabis oil extract obtained on the Internet.

[2] = Side effects / tolerated dose in patients; type: in vivo, human; settings: cancer patients, up to 30 mg twice a day; maximum tolerated dose unable to be defined
Source text: as §2

[3] = test system: adenocarcinoma cancer cell line; assay: Cell viability by cell counting with trypan blue (Example 2); type: cell-based; settings: 0.1, 1 or 10 μM, 48 h, FIG. 1
Source text: An adenocarcinoma cancer cell line, growing exponentially, was reset at a concentration of 1×10^4/ml and allowed to adhere overnight.

pERK = pERK western blotting relative to GAPDH (Example 3); type: cell-based; settings: 100 nM, 1 μM or 10 μM, 48 h, FIG. 2, higher levels of CBD
Experimental: An adenocarcinoma cell line, growing exponentially, was reset at a concentration of 1×10^4/ml and allowed to adhere overnight. Cannabidiol (CBD) was added at 100 nM, 1 μM, or 10 μM, and cells were harvested for standard western blotting techniques after 48 h. Immunoprobing was performed using anti-pERK antibodies, and the densities of each band determined. These values were then expressed relative to a GAPDH loading control.

[4] = Glioblastoma multiforme, 7 total cases
[5] = Miscellaneous cancers, 15 total cases
[6] = Non-Hodgkin's lymphoma, 8 total cases
[7] = Non-small cell lung, 2 total cases
[8] = Total of all cancer types, 119 total cases

Which Clinical status (cancer patients; 62/female breast cancer, CBD only, no symptoms) does the source give for `C=C(C)[C@@H]1CCC(C)=C[C@H]1c1c(O)cc(CCCCC)cc1O` [CBD, cannabidiol] here?
Its Clinical status is “currently stable”.

And the Time to death (cancer patients; 65/female oesophageal cancer, CBD only treatment, expected survival of three months)?
Its Time to death is “weight. They died 14 months later”.

And the Clinical condition (cancer patients; 65/female oesophageal cancer, CBD only treatment, six months later, regained weight)?
Its Clinical condition is “treatments and investigations. We last saw their six months later when they were looking well and had in fact regained”.

What about the Extended median survival (cancer patients; Anaplastic ependymoma, 3 total cases) of the same molecule?
The Extended median survival was 3.

And the Extended median survival (cancer patients; Bladder, 2 total cases)?
Its Extended median survival is 1.

And the Stable disease (cancer patients; Bladder, 2 total cases)?
The Stable disease was 1.

And the Died (cancer patients; Breast, 39 total cases)?
Its Died is 6.

What about the Extended median survival (cancer patients; Breast, 39 total cases) of the same molecule?
Its Extended median survival is 8.

What about the No effect/result (cancer patients; Breast, 39 total cases) of the same molecule?
Its No effect/result is 3.

What about the Slowed progression (cancer patients; Breast, 39 total cases) of the same molecule?
The Slowed progression was 3.

And the Stable disease (cancer patients; Breast, 39 total cases)?
Its Stable disease is 21.

What about the Tumour free (cancer patients; Breast, 39 total cases) of the same molecule?
The Tumour free was 7.

And the “Effect of short treatment duration” value (cancer patients; CBD used for less than six months)?
Its value is “little effect”.

What about the Died (cancer patients; Colorectal, 13 total cases) of the same molecule?
The Died was 6.

What about the Extended median survival (cancer patients; Colorectal, 13 total cases) of the same molecule?
The Extended median survival was 9.

And the No effect/result (cancer patients; Colorectal, 13 total cases)?
Its No effect/result is 1.

And the Slowed progression (cancer patients; Colorectal, 13 total cases)?
The Slowed progression was 1.

And the Tumour free (cancer patients; Colorectal, 13 total cases)?
Its Tumour free is 1.

And the Extended median survival (cancer patients; DIPG, 1 total case)?
The Extended median survival was 1.

What about the Died (cancer patients; [4]) of the same molecule?
Its Died is 3.

And the Extended median survival (cancer patients; [4])?
The Extended median survival was 4.

What about the Tumour free (cancer patients; Head and Neck, 2 total cases) of the same molecule?
Its Tumour free is 1.

What about the Died (cancer patients; [5]) of the same molecule?
Its Died is 1.

And the Extended median survival (cancer patients; [5])?
The Extended median survival was 5.

What about the No effect/result (cancer patients; [5]) of the same molecule?
The No effect/result was 1.

What about the Slowed progression (cancer patients; [5]) of the same molecule?
Its Slowed progression is 1.

And the Stable disease (cancer patients; [5])?
Its Stable disease is 6.

And the Tumour free (cancer patients; [5])?
Its Tumour free is 2.

What about the Stable disease (cancer patients; Neuroendocrine, 1 total case) of the same molecule?
The Stable disease was 1.

What about the Died (cancer patients; [6]) of the same molecule?
The Died was 1.

And the Stable disease (cancer patients; [6])?
The Stable disease was 6.

What about the Tumour free (cancer patients; [6]) of the same molecule?
The Tumour free was 1.

What about the Died (cancer patients; [7]) of the same molecule?
Its Died is 2.

And the Extended median survival (cancer patients; [7])?
Its Extended median survival is 2.

What about the Died (cancer patients; Ovarian, 6 total cases) of the same molecule?
The Died was 3.

What about the Extended median survival (cancer patients; Ovarian, 6 total cases) of the same molecule?
Its Extended median survival is 5.

What about the Slowed progression (cancer patients; Ovarian, 6 total cases) of the same molecule?
Its Slowed progression is 1.

And the Died (cancer patients; Pancreatic, 4 total cases)?
The Died was 2.

What about the Extended median survival (cancer patients; Pancreatic, 4 total cases) of the same molecule?
Its Extended median survival is 2.

What about the Died (cancer patients; Prostate, 16 total cases) of the same molecule?
Its Died is 3.

And the Extended median survival (cancer patients; Prostate, 16 total cases)?
The Extended median survival was 3.

What about the Stable disease (cancer patients; Prostate, 16 total cases) of the same molecule?
Its Stable disease is 10.

And the Died (cancer patients; [8])?
Its Died is 27.

What about the Extended median survival (cancer patients; [8]) of the same molecule?
Its Extended median survival is 43.

What about the No effect/result (cancer patients; [8]) of the same molecule?
The No effect/result was 5.

And the Slowed progression (cancer patients; [8])?
The Slowed progression was 8.

What about the Stable disease (cancer patients; [8]) of the same molecule?
The Stable disease was 45.

And the Tumour free (cancer patients; [8])?
The Tumour free was 12.

And the “Clinical effectiveness of dosing pattern” value (cancer patients; three days on and three days off versus continuous dose)?
The value was “more effective”.

And the “Circulating tumour cells (CTCs), first tests” value ([1]; 62/female breast cancer, CBD as only treatment, when first seen)?
The value was “tests which showed 10.6 cells per 7.5 ml. Subsequent tests 9 months later, 12 months later, two years later and”.

And the “Circulating tumour cells (CTCs)” value ([1]; 62/female breast cancer, 9 months later)?
Its value is 7.3 cells/7.5 ml.

And the “Circulating tumour cells (CTCs)” value ([1]; 62/female breast cancer, 12 months later)?
The value was 6.8 cells/7.5 ml.

And the “Circulating tumour cells (CTCs)” value ([1]; 67/female lobular breast cancer, 12 months later)?
Its value is 7.5 cells/7.5 ml.

And the “Circulating tumour cells (CTCs)” value ([1]; 67/female lobular breast cancer, 18 months later)?
Its value is 6.8 cells/7.5 ml.

And the “Circulating tumour cells (CTCs)” value ([1]; 67/female lobular breast cancer, 30 months later)?
Its value is 3.0 cells/7.5 ml.

And the “Circulating tumour cells (CTCs), initial” value ([1]; 67/female lobular breast cancer, initial)?
The value was “method of treatment. Initial CTCs were 9.3 cells per 7.5 ml. Follow-up measurements 12 months later, 18 months”.

What about the “Circulating tumour cells (CTCs), initial” value ([1]; 72/male prostate cancer, initial value before CBD effect) of the same molecule?
The value was 8.1 cells/7.5 ml.

And the “Circulating tumour cells (CTCs)” value ([1]; breast cancer, three years later)?
The value was 3.9 cells/7.5 ml.

What about the “Circulating tumour cells (CTCs)” value ([1]; breast cancer, two years later) of the same molecule?
Its value is 5.0 cells/7.5 ml.

And the “Circulating tumour cells (CTCs), first reduction” value ([1]; patient prostate cancer, CBD alone 10 mg twice a day, three days on/off)?
Its value is 5.9 cells/7.5 ml.

And the “Tumour diameter in left breast” value (tumour; 65/female breast cancer, initially 15 cm, CBD plus half course of radiotherapy, last appointment)?
The value was “treatment course. They have continued on CBD alone and on their last appointment the tumour in their left breast was 2 cm”.

What about the Axillary nodes (tumour; 65/female breast cancer, initially palpable left axillary nodes, last appointment) of the same molecule?
Its Axillary nodes is “cm in diameter, with no palpable axillary nodes”.

What about the Subsequent scans (tumour; 68/female breast cancer with bone metastases, CBD following local radiotherapy) of the same molecule?
Its Subsequent scans is “subsequent scans showed stable disease. They have had no treatment other than CBD following radiotherapy”.

What about the Subsequent scans (tumour; person, anaplastic ependymoma, CBD only treatment) of the same molecule?
The Subsequent scans was “disease stability”.

And the “Decrease of tumour volume (scan)” value (tumour; person, anaplastic ependymoma, CBD only treatment, after ten months)?
Its value is ~60%.

And the Scan result (tumour; person, tanycytic ependymoma Grade 2, 10 mg twice a day three days on/off, six months)?
Its Scan result is “tumour reduction”.

And the Side effects [2]?
Its Side effects is “complete absence of side effects”.

And the “Viability of cancer cells” value [3]?
The value was “inactive; also recorded: unaffected”.

What about the “pERK relative to controls” value (pERK) of the same molecule?
Its value is “increased”.

Reference: patent publication US20220362168A1, “ADMINISTRATION REGIMES OF CANNABINOIDS IN COMBINATION WITH CHEMOTHERAPEUTICS AGAINST CANCER” (priority 2019, published 2022)
